In patent publication US4064227A, “Radioimmunoassay method for the determination of cardiotonic glycosides” (Mallinckrodt, Inc., priority 1975, dated 1977):
Where “and” joins values, the source holds several entries; their conditions need not be identical. Equal entries are not always repeated.

Columns and labels:
[1] = system: digoxin antiserum (antibody); assay: radioimmunoassay: % of I-125 hapten bound by antibody in presence of digoxin standards (standard curve); assay type: binding, goats; details: for Mean % bound: mean of triplicate; for % bound: single vial
Description: (§1) The relative amounts of antibody bound radioactive hapten and unbound radioactive hapten are then determined. Preferably, this is accomplished by a determination of the radioactive hapten in each vial by means of a gamma counter. The count rate of vial components following removal of the resin strip reflects the serum concentration of cardiotonic glycoside. A precount determination of radioactivity in the vial is made at the outset of the test on a gamma counter. The percent of radioactive hapten which is antibody bound is then calculated as follows: [formula] With increasing quantities of nonradioactive cardiotonic glycoside (patient or standard), the percent radioactive hapten bound by the antibody decreases. Based upon this principle, a standard curve is prepared by plotting the percent radioactive hapten bound by each of a series of standard sera versus their respective cardiotonic glycosides concentration. The patient's total circulating serum cardiotonic glycoside concentration is then readily determined by comparing the percent radioactive hapten bound in the patient's serum sample to the standard curve.
This serum is produced in goats by the monthly injection of 7.5 mg of BSA-Digoxin conjugate emulsified in complete Freunds adjuvant. The conjugate is prepared by periodate oxidation according to Butler and Chen, Biochem J. 1970. Twenty mg are dissolved in one ml of phosphate buffer solution which is added dropwise with rapid mixing through a 1.0 ml tuberculin syringe to an equal volume of complete adjuvant. The material is injected into multiple subcutaneous sites.
The final dilutions are such that they insure binding eq 60 ± 5% of 3-0-succinyl digoxigenin-L-tyrosine* and displacement by non-radioactive digoxin.
A. Reaction vials: To 99 parts phosphate buffer solution add 1 part of reagent alcohol containing 7-100 nCi/10 ul of 3-0-succinyl digoxigenin tyrosine. Mix mechanically for 1 minute and transfer to an automatic pipette or dispensing device. 1 ml of the above prepared combination reagent is transferred to each reaction vial and the vials are stored at -20° C. (or lower).
C. Digoxin, antiserum diluted as described above to contain the dilution of antibody binding 60% of a 7-100 nc quantity of 3-0-succinyl digoxigenin tyrosine 125-I.
(§2) The following procedure is employed in carrying out the radioimmumoassay method of the invention to prepare a standard curve.
(§3) 1. The required number of reaction vials is removed from the freezer and the net precount per minute is determined for each vial during or after thawing. The thawed reaction vials are gently agitated. Preferably, the test is carried out in triplicate.
(§4) 2. 50 microliters each of the 0, 0.4, 1.0, 2.0, 3.0 and 5.0 ng/ml standard is added to 18 reaction vials.
(§5) 3. 50 microliters of antiserum is added to each of the reaction vials and the caps replaced.
(§6) 4. The vial contents are mixed by rotating for one minute on a rotator at 12-14 rpm or by gently agitating the vial rack.
(§7) 5. The reaction vials are incubated at room temperature for 30 minutes ± 5 minutes.
(§8) 6. One ion-exchange resin strip is inserted in each reaction vial and the caps replaced.
(§9) 7. The reaction vials are rotated for 30 minutes at ambient temperature (20° C. to 30° C.) on a rotator which produces end-over-end mixing at 12-14 rpm.
(§10) 8. The resin strips are carefully removed and discarded. The resin strips should be allowed to drain over the vials by touching the strip lightly on top of the vial prior to replacing the vial caps.
(§11) 9. The net postcount per minute is determined for each reaction vial.
(§12) 10. The % I-125 bound is calculated by dividing the net CPM postcount by the net CPM precount and multiplying by 100. [formula]
11. The values obtained should range from 60 + 5% at the 0 ng/ml concentration of digoxin/ml of serum to 20 ± 5% at 10 ng/ml.
The above procedure was followed for 3-succinyl-digoxigenin-L-tyrosin, 3-adipyl-digoxigenin-L-tryosine and 3-carbodigoxigenin-glycyl-L-tyrosine. […]

[2] = system: antiserum containing antibody; assay: radioimmunoassay: % of I-125 hapten bound by antibody in presence of digitoxin standards (standard curve); assay type: binding; details: for Mean % bound: mean of triplicate; for % bound: single vial
Description: as §1
These are produced by drying U.S.P. Reference Digitoxin at 100° C. for 2 hours in a vacuum desiccator. 50 mg is quantitatively transferred to a 100 ml volumetric flask and brought to that volume with methyl alcohol at 25° C. After mixing, 1 ml is transferred to another 100 ml volumetric flask and diluted to 10 ml with methyl alcohol. This 10 ml is diluted to 100 ml with distilled water. 1 ml is transferred to a 50 ml volumetric flask and diluted to 50 ml with digitoxin free normal human serum containing 0.1% NaN3. The product contains 100 ng/ml of digitoxin. This is diluted with normal human serum containing to 0.1% NaN3 to form a […] standard.
as §2, §3, §4, §5, §6, §7, §8, §9, §10, §11, §12
Essentially the same procedure was followed for 3-succinyl-digitoxigenin-L-tyrosine except 25 microliters of each digitoxin standard was used.

[3] = digitoxin standard 0.0 ng/ml, 25 microliters
[4] = digitoxin standard 4.0 ng/ml, 25 microliters
[5] = digitoxin standard 10.0 ng/ml, 25 microliters
[6] = digitoxin standard 20.0 ng/ml, 25 microliters
[7] = digitoxin standard 30.0 ng/ml, 25 microliters
[8] = digitoxin standard 50.0 ng/ml, 25 microliters
[9] = digitoxin standard 100.0 ng/ml, 25 microliters

For `C[C@]12CC[C@H](OC(=O)CCC(=O)N[C@@H](Cc3ccc(O)cc3)C(=O)O)C[C@H]1CC[C@@H]1[C@@H]2C[C@@H](O)[C@]2(C)[C@@H](C3=CC(=O)OC3)CC[C@]12O` [3-succinyl-digoxigenin-L-tyrosine], the Mean % bound ([1]; control, no antibody) was 5.5%, the “% bound” value ([1]; control, no antibody) was 5.7% and 6.0% and 4.7% and the Mean % bound ([1]; digoxin standard 0 ng/ml) was 66.8%. The “% bound” value ([1]; digoxin standard 0 ng/ml) was 67.2% and 65.4% and 67.7%, the Mean % bound ([1]; digoxin standard 1.0 ng/ml) was 49.0% and the “% bound” value ([1]; digoxin standard 1.0 ng/ml) was 48.6% and 49.8%. The Mean % bound ([1]; digoxin standard 2.0 ng/ml) was 35.5%, the “% bound” value ([1]; digoxin standard 2.0 ng/ml) was 35.0% and 34.6% and 36.9% and the Mean % bound ([1]; digoxin standard 3.0 ng/ml) was 27.2%. The “% bound” value ([1]; digoxin standard 3.0 ng/ml) was 27.4% and 26.7% and 27.5%, the Mean % bound ([1]; digoxin standard 5.0 ng/ml) was 19.6% and the “% bound” value ([1]; digoxin standard 5.0 ng/ml) was 19.9% and 19.3% and 19.6%. The Mean % bound ([1]; digoxin standard .4 ng/ml) was 58.5% and the “% bound” value ([1]; digoxin standard .4 ng/ml) was 59.3% and 57.2% and 59.0%.
With `C[C@]12CC[C@H](OC(=O)CCC(=O)N[C@@H](Cc3ccc(O)cc3)C(=O)O)C[C@H]1CC[C@@H]1[C@@H]2CC[C@]2(C)[C@@H](C3=CC(=O)OC3)CC[C@]12O` [3-succinyl digitoxigenin-L-tyrosine] the Mean % bound ([2]; control, no antibody) was 18.8%, the “% bound” value ([2]; control, no antibody) was 18.0% and 18.9% and 19.4% and the Mean % bound [2, 3] was 70.2%. The “% bound” value [2, 3] was 70.8% and 70.7% and 69.0%, the Mean % bound [2, 4] was 67.3% and the “% bound” value [2, 4] was 67.3% and 67.6% and 66.9%. For the same molecule, the Mean % bound [2, 5] was 59.9%, the “% bound” value [2, 5] was 59.9% and 60.2% and 59.5% and the Mean % bound [2, 6] was 46.8%. For the same molecule, the “% bound” value [2, 6] was 45.8% and 47.3% and 47.2%, the Mean % bound [2, 7] was 35.6% and the “% bound” value [2, 7] was 33.9% and 36.7% and 36.2%. The Mean % bound [2, 8] was 27.7%, the “% bound” value [2, 8] was 26.5% and 29.4% and 27.1% and the Mean % bound [2, 9] was 22.9%. For the same molecule, the “% bound” value [2, 9] was 22.2% and 22.5% and 24.0%.
In the case of `C[C@]12CC[C@H](OC(=O)CCCCC(=O)N[C@@H](Cc3ccc(O)cc3)C(=O)O)C[C@H]1CC[C@@H]1[C@@H]2C[C@@H](O)[C@]2(C)[C@@H](C3=CC(=O)OC3)CC[C@]12O` [3-adipyl-digoxigenin-L-tyrosine], the Mean % bound ([1]; control, no antibody) is reported as 3.9%, the “% bound” value ([1]; control, no antibody) is reported as 4.0% and 3.6% and the Mean % bound ([1]; digoxin standard 0 ng/ml) is reported as 65.2%. The “% bound” value ([1]; digoxin standard 0 ng/ml) was 66.4% and 64.8% and 64.3%, the Mean % bound ([1]; digoxin standard 1.0 ng/ml) was 46.8% and the “% bound” value ([1]; digoxin standard 1.0 ng/ml) was 46.1% and 47.0% and 47.3%. For the same molecule, the Mean % bound ([1]; digoxin standard 2.0 ng/ml) was 33.4%, the “% bound” value ([1]; digoxin standard 2.0 ng/ml) was 34.8% and 32.2% and 33.3% and the Mean % bound ([1]; digoxin standard 3.0 ng/ml) was 25.4%. The “% bound” value ([1]; digoxin standard 3.0 ng/ml) was 26.1% and 25.1% and 25.0%, the Mean % bound ([1]; digoxin standard 5.0 ng/ml) was 17.2% and the “% bound” value ([1]; digoxin standard 5.0 ng/ml) was 16.9% and 16.5% and 18.0%. For the same molecule, the Mean % bound ([1]; digoxin standard .4 ng/ml) was 57.5% and the “% bound” value ([1]; digoxin standard .4 ng/ml) was 57.8% and 57.4% and 57.2%.
With `C[C@]12CC[C@H](OC(=O)NCC(=O)N[C@@H](Cc3ccc(O)cc3)C(=O)O)C[C@H]1CC[C@@H]1[C@@H]2C[C@@H](O)[C@]2(C)[C@@H](C3=CC(=O)OC3)CC[C@]12O` [3-carbodigoxigenin-glycyl-L-tyrosine] the Mean % bound ([1]; control, no antibody) was 5.2%, the “% bound” value ([1]; control, no antibody) was 5.5% and 5.4% and 4.8% and the Mean % bound ([1]; digoxin standard 0 ng/ml) was 56.6%. For the same molecule, the “% bound” value ([1]; digoxin standard 0 ng/ml) was 57.0% and 55.8% and 56.9%, the Mean % bound ([1]; digoxin standard 1.0 ng/ml) was 41.3% and the “% bound” value ([1]; digoxin standard 1.0 ng/ml) was 39.4% and 41.7% and 42.9%. The Mean % bound ([1]; digoxin standard 2.0 ng/ml) was 31.6%, the “% bound” value ([1]; digoxin standard 2.0 ng/ml) was 31.5% and 31.7% and 31.4% and the Mean % bound ([1]; digoxin standard 3.0 ng/ml) was 25.3%. For the same molecule, the “% bound” value ([1]; digoxin standard 3.0 ng/ml) was 25.5% and 23.3% and 26.9%, the Mean % bound ([1]; digoxin standard 5.0 ng/ml) was 17.9% and the “% bound” value ([1]; digoxin standard 5.0 ng/ml) was 18.3% and 18.2% and 17.1%. The Mean % bound ([1]; digoxin standard .4 ng/ml) was 51.3% and the “% bound” value ([1]; digoxin standard .4 ng/ml) was 50.8% and 51.4% and 51.8%.
